According to patent publication US20210338709A1, “USES OF MODIFIED RNA ENCODING RETINALDEHYDE DEHYDROGENASE” (priority 2018, published 2021):

Legend:
mucosal memory responses = assay: Effect of ATRA on immune responses in skin-draining lymph nodes in vivo
Salmonella = details: ATRA during parenteral immunization, reference 12; cited from earlier work

SMILES: CC1=C(/C=C/C(C)=C/C=C/C(C)=C/C(=O)O)C(C)(C)CCC1 [ATRA, all-trans retinoic acid]
- mucosal memory responses at mucosal surfaces (mucosal memory responses): not only enhanced in the small intestine, but also at other mucosal surfaces
- protection against Salmonella infections (Salmonella): convey protection against Salmonella infections
